# Assay results taken from PubChem BioAssay (NCI).
#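 Here, GI50 denotes the concentration required for 50% inhibition of growth. Definition used: TGI = concentration required for complete inhibition of growth.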
# Tests used:
# Assay in all cases: NCI-60 cell line screen, 384-well format
# HL-60(TB) leukemia = system: HL-60(TB) leukemia
# MDA-MB-435 melanoma = system: MDA-MB-435 melanoma
# DU-145 prostate = system: DU-145 prostate
# SR leukemia = system: SR leukemia
# M14 melanoma = system: M14 melanoma
# SK-MEL-2 melanoma = system: SK-MEL-2 melanoma
# MDA-MB-231 breast = system: MDA-MB-231 breast
# OVCAR-8 ovarian = system: OVCAR-8 ovarian
# A549 NSCLC = system: A549 NSCLC
# NCI-H23 lung = system: NCI-H23 lung
# NCI-H322M lung = system: NCI-H322M lung
# MOLT-4 leukemia = system: MOLT-4 leukemia
# OVCAR-5 ovarian = system: OVCAR-5 ovarian
# COLO 205 colon = system: COLO 205 colon
# OVCAR-4 ovarian = system: OVCAR-4 ovarian
# NCI-H522 lung = system: NCI-H522 lung
# HCT-15 colon = system: HCT-15 colon
# T-47D breast = system: T-47D breast
# MCF7 breast = system: MCF7 breast
# MALME-3M melanoma = system: MALME-3M melanoma
# SNB-19 CNS = system: SNB-19 CNS
# SF-295 CNS = system: SF-295 CNS
# SN12C renal = system: SN12C renal
# HOP-62 NSCLC = system: HOP-62 NSCLC
# NCI/ADR-RES ovarian = system: NCI/ADR-RES ovarian
# SF-268 CNS = system: SF-268 CNS
# HOP-92 NSCLC = system: HOP-92 NSCLC
# NCI-H460 NSCLC = system: NCI-H460 NSCLC
# 786-0 renal = system: 786-0 renal
# NCI-H226 lung = system: NCI-H226 lung
# CCRF-CEM leukemia = system: CCRF-CEM leukemia
# SK-OV-3 ovarian = system: SK-OV-3 ovarian
# SNB-75 CNS = system: SNB-75 CNS
# RPMI-8226 leukemia = system: RPMI-8226 leukemia
# SK-MEL-5 melanoma = system: SK-MEL-5 melanoma
# HS 578T breast = system: HS 578T breast
# PC-3 prostate = system: PC-3 prostate
# BT-549 breast = system: BT-549 breast
# IGROV1 ovarian = system: IGROV1 ovarian
# TK-10 renal = system: TK-10 renal
# UACC-62 melanoma = system: UACC-62 melanoma
# OVCAR-3 ovarian = system: OVCAR-3 ovarian
# CAKI-1 renal = system: CAKI-1 renal
# ACHN renal = system: ACHN renal
# UACC-257 melanoma = system: UACC-257 melanoma
# EKVX NSCLC = system: EKVX NSCLC
# KM12 colon = system: KM12 colon
# MDA-MB-468 breast = system: MDA-MB-468 breast
# SF-539 CNS = system: SF-539 CNS
# SW-620 colon = system: SW-620 colon
# U251 glioblastoma = system: U251 glioblastoma
# HT29 colon = system: HT29 colon
# SK-MEL-28 melanoma = system: SK-MEL-28 melanoma
# A498 renal = system: A498 renal
# RXF 393 renal = system: RXF 393 renal
compound,measurement,setting,value
COc1ccc(-c2ccc(/C=C/C(=O)NO)cc2)cc1,GI50,HL-60(TB) leukemia,255 nM
same,TGI,HL-60(TB) leukemia,524 nM
same,GI50,MDA-MB-435 melanoma,4260 nM
same,TGI,MDA-MB-435 melanoma,64700 nM
same,GI50,DU-145 prostate,1300 nM
same,TGI,DU-145 prostate,3540 nM
same,GI50,SR leukemia,195 nM
same,TGI,SR leukemia,368 nM
same,GI50,M14 melanoma,1450 nM
same,TGI,M14 melanoma,3280 nM
same,GI50,SK-MEL-2 melanoma,472 nM
same,TGI,SK-MEL-2 melanoma,1140 nM
same,GI50,MDA-MB-231 breast,391 nM
same,TGI,MDA-MB-231 breast,1730 nM
same,GI50,OVCAR-8 ovarian,562 nM
same,TGI,OVCAR-8 ovarian,2120 nM
same,GI50,A549 NSCLC,431 nM
same,TGI,A549 NSCLC,11600 nM
same,GI50,NCI-H23 lung,728 nM
same,TGI,NCI-H23 lung,2340 nM
same,GI50,NCI-H322M lung,3100 nM
same,TGI,NCI-H322M lung,33300 nM
same,GI50,MOLT-4 leukemia,166 nM
same,TGI,MOLT-4 leukemia,329 nM
same,GI50,OVCAR-5 ovarian,1940 nM
same,TGI,OVCAR-5 ovarian,5930 nM
same,GI50,COLO 205 colon,3310 nM
same,TGI,COLO 205 colon,6560 nM
same,GI50,OVCAR-4 ovarian,284 nM
same,TGI,OVCAR-4 ovarian,12200 nM
same,GI50,NCI-H522 lung,373 nM
same,TGI,NCI-H522 lung,1480 nM
same,GI50,HCT-15 colon,332 nM
same,TGI,HCT-15 colon,2730 nM
same,GI50,T-47D breast,1400 nM
same,TGI,T-47D breast,5260 nM
same,GI50,MCF7 breast,1410 nM
same,TGI,MCF7 breast,4280 nM
same,GI50,MALME-3M melanoma,1180 nM
same,TGI,MALME-3M melanoma,3920 nM
same,GI50,SNB-19 CNS,2520 nM
same,TGI,SNB-19 CNS,11900 nM
same,GI50,SF-295 CNS,2840 nM
same,TGI,SF-295 CNS,14200 nM
same,GI50,SN12C renal,1290 nM
same,TGI,SN12C renal,3810 nM
same,GI50,HOP-62 NSCLC,760 nM
same,TGI,HOP-62 NSCLC,2580 nM
same,GI50,NCI/ADR-RES ovarian,527 nM
same,TGI,NCI/ADR-RES ovarian,1620 nM
same,GI50,SF-268 CNS,967 nM
same,TGI,SF-268 CNS,2870 nM
same,GI50,HOP-92 NSCLC,986 nM
same,TGI,HOP-92 NSCLC,4190 nM
same,GI50,NCI-H460 NSCLC,626 nM
same,TGI,NCI-H460 NSCLC,2500 nM
same,GI50,786-0 renal,1140 nM
same,TGI,786-0 renal,3650 nM
same,GI50,NCI-H226 lung,457 nM
same,TGI,NCI-H226 lung,2410 nM
same,GI50,CCRF-CEM leukemia,128 nM
same,TGI,CCRF-CEM leukemia,258 nM
same,GI50,SK-OV-3 ovarian,349 nM
same,TGI,SK-OV-3 ovarian,1560 nM
same,GI50,SNB-75 CNS,466 nM
same,TGI,SNB-75 CNS,4640 nM
same,GI50,RPMI-8226 leukemia,262 nM
same,TGI,RPMI-8226 leukemia,548 nM
same,GI50,SK-MEL-5 melanoma,421 nM
same,TGI,SK-MEL-5 melanoma,1580 nM
same,GI50,HS 578T breast,2850 nM
same,TGI,HS 578T breast,9630 nM
same,GI50,PC-3 prostate,818 nM
same,TGI,PC-3 prostate,9740 nM
same,GI50,BT-549 breast,624 nM
same,TGI,BT-549 breast,3510 nM
same,GI50,IGROV1 ovarian,1680 nM
same,TGI,IGROV1 ovarian,5020 nM
same,GI50,TK-10 renal,1820 nM
same,TGI,TK-10 renal,7230 nM
same,GI50,UACC-62 melanoma,1930 nM
same,TGI,UACC-62 melanoma,4350 nM
same,GI50,OVCAR-3 ovarian,237 nM
same,TGI,OVCAR-3 ovarian,531 nM
same,GI50,CAKI-1 renal,1750 nM
same,TGI,CAKI-1 renal,5590 nM
same,GI50,ACHN renal,2100 nM
same,TGI,ACHN renal,4230 nM
same,GI50,UACC-257 melanoma,1380 nM
same,TGI,UACC-257 melanoma,8800 nM
same,GI50,EKVX NSCLC,2280 nM
same,TGI,EKVX NSCLC,11400 nM
same,GI50,KM12 colon,1510 nM
same,TGI,KM12 colon,16000 nM
same,GI50,MDA-MB-468 breast,292 nM
same,TGI,MDA-MB-468 breast,578 nM
same,GI50,SF-539 CNS,525 nM
same,TGI,SF-539 CNS,2200 nM
same,GI50,SW-620 colon,1820 nM
same,TGI,SW-620 colon,10200 nM
same,GI50,U251 glioblastoma,1190 nM
same,TGI,U251 glioblastoma,2850 nM
same,GI50,HT29 colon,2720 nM
same,TGI,HT29 colon,16300 nM
same,GI50,SK-MEL-28 melanoma,2600 nM
same,TGI,SK-MEL-28 melanoma,7200 nM
same,GI50,A498 renal,1860 nM
same,TGI,A498 renal,11200 nM
same,GI50,RXF 393 renal,298 nM
same,TGI,RXF 393 renal,1130 nM
